The values that follow come from patent US20260138969A1 (Korea Research Institute of Chemical Technology, priority 2023, published 2026).

One data set has as its system BV2 cells. Description: Anti-inflammatory efficacy: LPS-induced TNF-α secretion (ELISA). The conditions noted are these: 0.1, 0.3, 1 μM pretreatment 1 hour, LPS 100 μg/ml 24 hours; FIG. 2. In kind it is cell-based. As for the experimental part:
BV2 cells (2×10^4 cells per well) were incubated for 24 hours in a 96-well culture plate. Subsequently, the Example compounds were added in 0.1 μM, 0.3 μM, and 1 μM, respectively, for 1 hour, followed by the addition of LPS 100 μg/ml and incubated for 24 hours. After incubation, conditioned medium (CM) was harvested and centrifuged at 2000 rpm. After separating the supernatant of the solution after centrifugation, the TNF-α secreted from the cell culture medium was measured using the corresponding ELISA kit (LABISKOMA, Seoul, Korea).
On the technique in general: In an ELISA, binding on a coated surface is turned into a signal by an enzyme label.

Data set [1] in a line: TG synthesis inhibition in FFA-treated HepG2 cells. The format is cell-based, human. As to conditions: human, HepG2 cells, read-out: Cell Viability (% of HepG2 control).
The next data set deals with HepG2 cells. Put plainly: TG synthesis inhibition in FFA-treated HepG2 cells. In kind it is cell-based, human.
The nature of data set [2]: MDR-MDCK cell membrane permeability assessment. The format is in vitro ADME. As to conditions: dog; MDCK-MDR1 monolayer, 37° C., 2 hours. The method, then:
(§1) MDCK-MDR1 cells (5×10^5 cells/mL) were incubated on a 24-transwell plate (Corning, NY, USA) for 4 days to measure permeability through a single layer of MDR-MDCK cells. The medium was replaced with a new medium every two days, and the electrical resistance between epithelial tissues (TEER) was measured using a Millicell® ERS-2 Volohmmeter (Merck KGaA, Darmstadt, Germany), and the cell membrane permeability test was performed after confirming that this value was greater than or equal to 300 Ohm.cm^2.
(§2) The apical and basolateral chambers were washed twice each in the order of Hanks' Balanced Salt Solution (HBSS) containing DPBS buffer and 10 mM Hydroxyethyl piperazine Ethane sulfonic acid (HEPES), and in the final washing step, HBSS was filled and maintained at a stable state at 37° C. for 30 minutes. After 30 minutes, the test material was instilled in each chamber and left at 37° C. for 2 hours, and the culture medium of the transferred layer was collected at 30-minute intervals, and the collected amount was supplemented with new HBSS.
(§3) The apparent permeability coefficient (Papp, cm/sec) was calculated using the following formula:
(§4) [formula] • Papp: Apparent permeability • dQ/dt: Permeability of the drug • A: Area of the filter membrane on which the cells are laid • C_0: Initial concentration of the drug
(§5) In addition, the Efflux ratio was calculated as follows: […]

In another data set the test system is MDR1. Description: MDR-MDCK cell membrane permeability assessment. In kind it is in vitro ADME. The conditions noted are these: dog; MDCK-MDR1 monolayer. The method, then:
as §1, §2, §3, §4, §5

Data set [3] in a line: Distribution in the mouse brain (plasma and brain AUC). The format is in vivo. The method, then:
The blood-brain barrier permeability in ICR mice was confirmed by oral administration of 10 mg/kg of test material. Male […] mice were fasted for 15 h prior to administration. The test material was administered at a dose of 10 mg/kg and a volume of 5 mL/kg, and the solvent composition was N-Methyl-2-pyrrolidone (NMP), Polyethylene glycol 400 (PEG 400), and distilled water (D.W) at a volume ratio of 10:40:50(%), respectively. After administration, blood and brain tissue samples were taken by sacrificing mice with carbon dioxide inhalation at each time point corresponding to 1, 4, and 8 hours. Whole blood was collected from the abdominal vena cava, and brain samples were collected after systemic perfusion with saline to remove as much blood as possible.
The distribution ratio in mouse plasma and brain was calculated by calculating the AUC after concentration quantification in each tissue.

The subject of data set [4] is SOD1 G93A transgenic ALS mouse model. Description: SOD1 G93A transgenic ALS mouse model: neurological score. The format is in vivo. As to conditions: 30 mg/kg PO QD; from the 19th week of age onwards; vs G2. As for the experimental part:
(§6) The test drug was administered once daily (QD) via oral administration (PO) in a solution of 5 mL/kg from 8 weeks of age until death. Body weight was measured weekly, and disease score was measured daily from 8 weeks until the death of the animal. Motor behavior tests (grip strength) and neurological score tests (modified Irwin test) were performed at 9, 11, 13, 15, 17, 19, and 21 weeks, respectively. The survival of the mice was monitored daily.

The test system is the same in data set [5]. Put plainly: SOD1 G93A transgenic ALS mouse model: grip strength. In kind it is in vivo. The conditions noted are these: 30 mg/kg PO QD from 8 weeks of age; vs G2. As for the experimental part:
as §6
Grip strength measurements were performed on mice aged 9, 11, 13, 15, 17, 19, and 21 weeks of age. The mouse was placed on a grip strength measurement device (San Diego Instruments, San Diego, USA) in such a way that the mouse grabbed the handle of a small mesh with its front paws. I put the mouse down on the platform and then slowly pulled the handle […] until the mouse released the handle. The device automatically measured the grip strength of the mouse in grams. Five scores per mouse were recorded consecutively in a one-day session.

The subject of data set [6] is CDAHFD-induced non-alcoholic steatohepatitis mouse model. Description: CDAHFD-induced non-alcoholic steatohepatitis mouse model: liver fibrosis (Picrosirius red). The format is in vivo. As to conditions: for Picrosirius red staining area in the liver: Selonsertib 30 mg/kg, Example 3 10 and 30 mg/kg, Example 2 10 and 30 mg/kg PO QD, CDAHFD diet 4 and 8 weeks. As for the experimental part:
Creation of CDAHFD-induced NASH model and drug administration were carried out by dividing C57BL/6 male mice at 3 weeks of age into 7 groups as shown in Table 16 below. The control group (G1) was fed standard feed and water. Groups G2 to G7 were fed the CDAHFD (Research Diet Inc, #A06071302) diet for 4 and 8 weeks.
Picrosirius red staining was used for histological visualization of collagen fibers. Histopathology analysis evaluated the efficacy of improving liver fibrosis.
For mice in each group, three sections of the liver fixed with 4% PFA (paraformaldehyde) were prepared with paraffin blocks. Paraffin blocks were sectioned to a thickness of 5 μm (Histocore AUTOCUT R, Leica Microsystems, Germany) and the sections were mounted on silane-coated slides (MUTO, JPN) and stored until staining.
Xylene was used to remove paraffin from the slides, and the slides were moisturized and washed. The slides were stained with a solution of Picrosirius red (ab150681, Abcam, UK) and washed off with a solution of acetic acid. The slides were fitted after dehydration and cleaning using alcohol and xylene. For each section, two images of different areas were taken using a microscope (Axioscan7, ZEISS, Germany). The fibrotic area was measured using image J software compared to the total area. FIGS. 23a and 23b are graphs and images of Picrosirius red stained area ratios in the liver of a CDAHFD-induced mouse model of nonalcoholic steatohepatitis.

Where [7] appears, read: oral 10 mg/kg, samples at 1, 4, 8 hours.

A word on the viability: it is the share of living cells, or the viability signal relative to a control. Usually Papp A→B stands for how fast a substance crosses the layer from the apical side. A low value points to poor permeation. One may read the Papp B→A as the apparent permeability from the basolateral to the apical side of a cell layer. The efflux ratio is a quotient of directional permeabilities that is used to spot active efflux. For orientation: Kp means the ratio of the level in a tissue or fluid to that in plasma or blood.

The structures appear in SMILES notation. Marks after values point to notes of the source that are not given here.

Consider `Cc1cc(F)c(C(=O)Nc2cccc(-n3nnc4c3CCCC4)n2)cc1-n1cnc(C2CC2)c1` [Example 3, 5-(4-cyclopropyl-1H-imidazole-1-yl)-2-fluoro-4-methyl-N-(6-(4,5,6,7-tetrahydro-1H-benzo[d][1,2,3]triazole-1-yl)pyridine-2-yl)benzamide], for which the “TNF-α secretion induced by LPS” value in the data set on BV2 cells is on record as “reduced TNF-α secretion at all concentrations compared to Selonsertib”. In [1] (FFA 1 mM + 0.3 μM), the viability at 48 h, 0.3 μM was 99.1%. Further, the viability at 48 h, 1 μM in data set [1] (FFA 1 mM + 1 μM) was 93.1%. Also, in the data set with HepG2 cells (FFA 1 mM + 0.3 μM), the “TG Level (% of HepG2 control)” value was 117.38 * % of HepG2 control. In addition, in the data set on HepG2 cells (FFA 1 mM + 1 μM), the “TG Level (% of HepG2 control)” value is listed as 106.59 * % of HepG2 control. Moreover, in [2], the Papp A→B at 2 h was 67.3 ± 12.8 ×10⁻⁶ cm/s and the apparent permeability from basolateral to apical (Papp B→A) at 2 h stood at 74.8 ± 12.3 ×10⁻⁶ cm/s. In the data set on MDR1, the efflux ratio at 2 h was 1.13. In addition, the concentration ratio (Kp) in data set [3] (male, brain/plasma, po, 10 mg/kg) was determined as 0.021. In data set [3] (setting [7]), the Aukinf brain is 6.61 ± 1.75 ug*h · g and the Aukinf plasma came to 320 ± 74.8 µg·mL·h. Further, in data set [4], the neurological scores entry is reported as “significant decrease in neurological scores compared to G2”. The grip strength entry in data set [5] was “tended to increase grip strength compared to group G2, and the grip strength increased significantly from 19 weeks”. Besides, the “Picrosirius red staining area in the liver” value in [6] is listed as “significantly reduced”.
For the molecule `Cc1cc(F)c(C(=O)Nc2cccc(-n3nnc4c3CCC4)n2)cc1-n1cnc(C2CC2)c1` [Example 2, 5-(4-cyclopropyl-1H-imidazole-1-yl)-N-(6-(5,6-dihydrocyclopenta[d][1,2,3]triazole-1 (4H)-yl)pyridine-2-yl)-2-fluoro-4-methylbenzamide], in data set [2], the apparent permeability from apical to basolateral (Papp A→B) at 2 h is 93.2 ± 11.2 ×10⁻⁶ cm/s and the apparent permeability from basolateral to apical (Papp B→A) at 2 h worked out at 99.1 ± 16.8 ×10⁻⁶ cm/s. Also, the efflux ratio at 2 h in the data set with MDR1 is 1.06. Besides, the “efficacy in improving liver fibrosis (Picrosirius red)” value in data set [6] (30 mg/kg PO QD, after 4 weeks of the CDAHFD diet) is given as “most improved efficacy”. The “Picrosirius red staining area in the liver” value in data set [6] is recorded as “significantly reduced”.
